Results published in patent US20100291592A1, “NOVEL MARKER FOR SENSITIVITY AGAINST SULFONAMIDE COMPOUND” (priority 2006, published 2010).

Legend:
[1] = test system: human colon cancer cell line (WiDr); assay: Anti-tumor effect on subcutaneous transplant model of WiDr; assay type: in vivo, nude mouse; conditions: WiDr subcutaneous transplant, 50, 100 or 200 mg/kg orally twice a day for 14 days
Procedure: (§1) Human non-small-cell lung cancer cell line PC9 (obtained from Immuno-Biological laboratories Co., Ltd.), human non-small-cell lung cancer cell line A549 (obtained from Dainippon Pharmaceutical), human colon cancer cell line WiDr (obtained from Dainippon Pharmaceutical) and human colon cancer cell line HCT116 (obtained from ATCC) were cultured in RPMI1640 (containing 10% FBS) in a 5% carbon dioxide incubator at 37° C. to about 80% confluence, and the cells were collected with trypsin-EDTA. Using a phosphate buffer for PC9, WiDr and HCT116 and a 50% matrigel-containing phosphate buffer for A549, 5×10^7 cells/mL suspensions were prepared, respectively. Then, 0.1 mL each of the resulting cell suspensions was subcutaneously transplanted to the side of a nude mouse.
(§2) For PC9, 8 days after the transplantation, E7820 was orally administered for 50 mg/kg, 100 mg/kg or 200 mg/kg twice a day for 14 days. For A549, 24 days after the transplantation, E7820 was orally administered for 50 mg/kg or 200 mg/kg twice a day for 7 days. For WiDr, 11 days after the transplantation, E7820 was orally administered for 50 mg/kg, 100 mg/kg or 200 mg/kg twice a day for 14 days. […]
(§3) The major and minor axes of tumors were measured with Digimatic caliper (Mitsutoyo), and tumor volumes and relative tumor volumes were calculated according to the following formulae. […]

[2] = test system: cancer cell line resistant to E7070; conditions: WO2006/030941 and WO2006/030947; cited from earlier work
[3] = test system: human non-small cell lung cancer cell line (PC9); assay: Anti-tumor effect on subcutaneous transplant model of PC9; assay type: in vivo, nude mouse; conditions: PC9 subcutaneous transplant, 50, 100 or 200 mg/kg orally twice a day for 14 days
Procedure: as §1, §2, §3

EGFR1 [4] = assay: EGFR1 expression level in PC9 subcutaneous transplant model (immunohistochemical staining); assay type: in vivo; conditions: PC9 tumors in nude mice, 25, 50, 100 or 200 mg/kg orally twice a day for 7 days, versus unadministered group
Procedure: PC9 was cultured in RPMI1640 (containing 10% FBS) in a 5% carbon dioxide incubator at 37° C. The cultured human tumor cells (PC9) (8×10^6 cells/mouse) were subcutaneously transplanted into nude mice (KSN mice from SLC). Once proliferation of the tumors transplanted into the mice was observed, E7820 was orally administered to the mice for 0 mg/kg (unadministered), 25 mg/kg, 50 mg/kg, 100 mg/kg or 200 mg/kg twice a day for 7 days. Following 7 days of administration, tumor tissues were removed from the mice, fixed with formalin and embedded in paraffin. Subsequently, the paraffin-embedded tumor tissues were sliced into a thickness of 6 μm, placed on glass slides and deparaffinized with xylene/ethanol. Then, these sections were treated with […] (Roche), and subjected to immunostaining according to the protocol of Simple Stain kit: mouse MAX-PO (M) (NICHIREI) using an anti-EGFR antibody (DakoCytomation). Referring to FIG. 5, (a) to (f) show stain with control IgG (negative control), E7820-unadministered group, E7820-administered group (25 mg/kg), E7820-administered group (50 mg/kg), E7820-administered group (100 mg/kg) and E7820-administered group (200 mg/kg), respectively. Each panel was enlarged twenty times. […] This proves that E7820 also exerts an anti-tumor effect at tissue level by decreasing the EGFR1 expression level. […]

[5] = test system: human colon cancer cell line (HCT116); assay: Anti-tumor effect on subcutaneous transplant model of HCT116; assay type: in vivo, nude mouse; conditions: 6.25-200 mg/kg orally twice a day for 14 days
Procedure: as §1, §2, §3

[6] = test system: human non-small cell lung cancer cell line (A549); assay: Anti-tumor effect on subcutaneous transplant model of A549; assay type: in vivo, nude mouse; conditions: 50 or 200 mg/kg orally twice a day for 7 days
Procedure: as §1, §2, §3

EGFR1 [7] = assay: EGFR1 expression level in WiDr subcutaneous transplant model (western blotting); assay type: in vivo, nude mouse; conditions: for EGFR1 expression level (% of control) WiDr: WiDr tumor in nude mouse
Procedure: (§4) HCT116 or WiDr was cultured in RPMI1640 (containing 10% FBS) in a 5% carbon dioxide incubator to about 80% confluence. The cells were collected with trypsin-EDTA according to a routine procedure and 5×10^7 cells/mL suspensions were prepared with a phosphate buffer. Then, 0.1 mL each of the resulting suspension was subcutaneously transplanted to the side of a nude mouse.
(§5) For HCT116, 23 days after the transplantation, E7820 was orally administered for 12.5 mg/kg, 50 mg/kg or 200 mg/kg twice a day for 3 days. On the other hand, for WiDr, 18 days after the transplantation, E7820 was orally administered for 50 mg/kg or 200 mg/kg twice a day for 7 days. Four days after the start of administration for HCT116 and 8 days after the start of administration for WiDr, tumors were removed to prepare tumor cell lysates with various protease inhibitors and a cell lysis solution containing 10% glycerol and 1% Triton X-100 in ice. For each tumor cell lysate, an equal amount of protein was fractionated by SDS-PAGE and transferred onto a nitrocellulose membrane (Hybond ECL, Amersham Biosciences). Then, western blotting was performed by using an anti-EGFR1 antibody (Santa Cruz Biotechnology) and horse radish peroxidase-labeled anti-mouse IgG antibody (secondary antibody) (Cell Signaling) according to a routine procedure.
(§6) Detection and quantification of each band were carried out as follows. First, each band was forced to chemically develop a color with Chemiluminescent Substrate (PIERCE), which was then captured as a digital image with Image Master VDS-CL (Amersham Pharmacia Biotech, Tokyo). The digital images were saved as TIF files and numerically converted with Image Master total Lab (version 1.00, Amersham Pharmacia Biotech, Tokyo).

EGFR1 [8] = assay: EGFR1 expression level in HCT116 subcutaneous transplant model (western blotting); assay type: in vivo, nude mouse; conditions: for EGFR1 expression level (% of control) HCT116: HCT116 tumor in nude mouse
Procedure: as §4, §5, §6

For `Cc1ccc(NS(=O)(=O)c2cccc(C#N)c2)c2[nH]cc(C#N)c12` [E7820, N-(3-cyano-4-methyl-1H-indole-7-yl)-3-cyanobenzenesulfonamide], the “Anti-tumor effect (relative tumor volume)” value [1] is listed as “showed anti-tumor effects”, the “Cross-resistance of E7070-resistant cancer cell line (antiproliferative activity)” value [2] is listed as “cross-resistance” and the “Anti-tumor effect (relative tumor volume)” value [3] is listed as “stronger anti-tumor effects”. For the same compound, the “Effect on EGFR1 expression level (immunohistochemical staining, in words)” value (EGFR1 [4]) was “decrease in the EGFR1 expression level was significant”, the “Anti-tumor effect (relative tumor volume)” value [5] was “stronger anti-tumor effects” and the “Anti-tumor effect (relative tumor volume)” value [6] was “showed anti-tumor effects”. The “Effect on EGFR1 expression level (in words)” value (EGFR1 [7]; WiDr transplanted tumors) was “did not change the EGFR1 expression level”, the “EGFR1 expression level (% of control) WiDr” value (EGFR1 [7]; 50 mg/kg orally twice a day for 7 days) was 117 % of control and the “EGFR1 expression level (% of control) WiDr” value (EGFR1 [7]; 200 mg/kg orally twice a day for 7 days) was 121 % of control. The “Effect on EGFR1 expression level (in words)” value (EGFR1 [8]; HCT116 transplanted tumors, dose-dependent) was “decreased the EGFR1 expression level”, the “EGFR1 expression level (% of control) HCT116” value (EGFR1 [8]; 12.5 mg/kg orally twice a day for 3 days) was 37 % of control and the “EGFR1 expression level (% of control) HCT116” value (EGFR1 [8]; 50 mg/kg orally twice a day for 3 days) was 47 % of control. For the same compound, the “EGFR1 expression level (% of control) HCT116” value (EGFR1 [8]; 200 mg/kg orally twice a day for 3 days) was 42 % of control.
